Data as given in the NIST ThermoML archive (doi:10.1021/je100042c).

Conditions: 101.33 kPa, Liquid; for viscosity: Concentric cylinders viscometry; for mass density: Vibrating tube method

CCCCCCCCCCCCCCCC(=O)OC [methyl hexadecanoate]
Conditions | mass density [kg/m3] | viscosity [mPa·s]
308.15 K | 854.5 | 4.212
313.15 K | 850.8 | 3.755
318.15 K | 847 | 3.368
323.15 K | 843.3 | 3.038
328.15 K | 839.6 | 2.754
333.15 K | 835.8 | 2.508
338.15 K | 832.1 | 2.295
343.15 K | 828.4 | 2.107
348.15 K | 824.7 | 1.942
353.15 K | 821 | 1.796
358.15 K | 817.3 | 1.666
363.15 K | 813.6 | 1.55

CCCCCCCCCCCCCCCCCC(=O)OC [methyl octadecanoate]
Conditions | mass density [kg/m3] | viscosity [mPa·s]
313.15 K | 849.8 | 4.986
318.15 K | 846.1 | 4.435
323.15 K | 842.5 | 3.965
328.15 K | 838.9 | 3.568
333.15 K | 835.3 | 3.225
338.15 K | 831.7 | 2.929
343.15 K | 828.1 | 2.672
348.15 K | 824.5 | 2.448
353.15 K | 820.9 | 2.25
358.15 K | 817.3 | 2.076
363.15 K | 813.7 | 1.922

CCCCCCCC(=O)OC [methyl octanoate]
Conditions | mass density [kg/m3] | viscosity [mPa·s]
283.15 K | 885.9 | 1.71
288.15 K | 881.5 | 1.559
293.15 K | 877.1 | 1.427
298.15 K | 872.8 | 1.313
303.15 K | 868.4 | 1.212
308.15 K | 864 | 1.123
313.15 K | 859.6 | 1.044
318.15 K | 855.2 | 0.9733
323.15 K | 850.8 | 0.9093
328.15 K | 846.4 | 0.8518
333.15 K | 841.9 | 0.7998
338.15 K | 837.5 | 0.7528
343.15 K | 833 | 0.7101
348.15 K | 828.5 | 0.6713
353.15 K | 824 | 0.6359

CCCCCCCCCCCCCC(=O)OC [methyl tetradecanoate]
Conditions | mass density [kg/m3] | viscosity [mPa·s]
298.15 K | 863.7 | 3.982
303.15 K | 859.9 | 3.543
308.15 K | 856 | 3.165
313.15 K | 852.2 | 2.845
318.15 K | 848.4 | 2.571
323.15 K | 844.6 | 2.334
328.15 K | 840.8 | 2.129
333.15 K | 837 | 1.95
338.15 K | 833.1 | 1.793
343.15 K | 829.3 | 1.655
348.15 K | 825.5 | 1.532
353.15 K | 821.8 | 1.423
